Measured values as given in US4283409A, “Imidazolone derivatives” (Pfizer Inc., priority 1979, dated 1981).

Key:
[1] = system: sorbitol accumulation in the sciatic nerve of streptozotocinized (i.e., diabetic) rats; assay: sorbitol accumulation in the sciatic nerve of streptozotocinized (diabetic) rats; assay type: in vivo
Method: (§1) The activity of the compounds of the present invention, as agents for the control of chronic diabetic complications, is determined by their ability to successfully pass one or more of the following standard biologically and/or pharmacological tests, viz., (1) measuring their ability to reduce or inhibit sorbitol accumulation in the sciatic nerve of acutely streptozotocinized (i.e., diabetic) rats; (2) measuring their ability to reverse already-elevated sorbitol levels in the sciatic nerve and lens of chronic streptozotocin-induced diabetic rats; (3) measuring their ability to prevent or inhibit galactitol formation in the lens of acutely galactosemic rats, and (4) measuring their ability to delay cataract formation and reduce the severity of lens opacities in chronic galactosemic rats.
The final product of Example 1, viz., 3',4'-dihydro-spiro-[imidazolidine-4,1'(2'H)naphthalene]-5-one, was tested for its ability to reduce or inhibit sorbitol accumulation in the sciatic nerve of streptozotocinized (i.e., diabetic rats) by the procedure essentially described in U.S. Pat. No. 3,821,383. In the present study, the amount of sorbitol accumulation in the sciatic nerves was measured 27 hours after the induction of diabetes. The compound was then administered orally at 25 mg./kg. at intervals of 4, 8 and 24 hours after the administration of streptozotocin. The results obtained in this manner are clearly presented in terms of the percent inhibition (%) afforded by the test compound as compared to the case where no compound was administered (i.e., the control or untreated animal where sorbitol levels normally rise from approximately […]. tissue to as high as 400 mM/g. tissue in the 27-hour test period).

[2] = system: galactitol levels in the lens of galactosemic subjects; assay: galactitol levels in the lens of galactosemic subjects; assay type: in vivo, rats; settings: summary statement, no dose given
Method: as §1

O=C1NCNC12CCCc1ccccc12 (stereo not shown) [Example 1, 3',4'-dihydro-spiro-[imidazolidine-4,1'(2'H)naphthalene]-5-one]
percent inhibition of sorbitol accumulation in the sciatic nerve ([1]; diabetic rats, oral 25 mg./kg. at 4, 8 and 24 hours after streptozotocin, sorbitol measured 27 hours after induction of diabetes, vs untreated control): 52% | signs of toxic side effects ([1]; diabetic rats, oral route, dose level of 25 mg./kg.): without showing any substantial signs of toxic side effects | lowering sorbitol levels in the lens and sciatic nerve of diabetic subjects ([1]; summary statement, no dose given): remarkably effective | lowering galactitol levels in the lens of galactosemic subjects [2]: remarkably effective
